Experimental data published in patent US20110159111A1, “PHARMACEUTICAL COMBINATIONS” (priority 2006, published 2011).
Where two headings read alike, the source gives them in different places. One block for each compound: values may come before it.

Experiments:
[1] = system: Chronic Myeloid Leukaemia; conditions: CML patients in blast phase; cited from earlier work
[2] = system: human colon carcinoma cell line HCT 116; assay: Anti-proliferative activity, HCT-116 cell line (Set B); format: cell-based; conditions: HCT 116 (ECACC No. 91091005), Set B Example 1
Excerpt: Anti-proliferative Activity
See Example 15 of WO 2006/077426 at pages 100-101 (which is incorporated herein by reference).

[3] = Solubilities of acid addition salts of 1-(2,6-difluorophenyl)-N-[3-(5-morpholin-4-ylmethyl-1H-benzimidazol-2-yl)-1H-pyrazol-4-yl]-urea; format: physicochemical
Procedure: This was carried out as described in Example 61 of WO 2006/070195 at pages 173 to 175 (the content of which is incorporated herein by reference).

[4] = clinical studies; cited from earlier work
[5] = system: Acute Promyelocytic Leukemia; conditions: APL patients; cited from earlier work
[6] = system: chronic lymphocytic leukaemia; conditions: initial therapy, symptomatic CLL patients; cited from earlier work
[7] = Vapour sorption/desorption analysis (IgaSorp balance); format: physicochemical
Procedure: Approximately 20 mg of sample was placed into a wire-mesh vapour sorption balance pan and loaded into an ‘IgaSorp’ vapour sorption balance (Hiden Analytical Instruments) held at 25+/−0.1° C. The sample was then dried by maintaining a 0% humidity environment (using mass flow control apparatus) until no further weight change was recorded. Subsequently, the sample was then subjected to a ramping profile from 0-90% relative humidity (% RH) at 10% RH increments, maintaining the sample at each step until equilibration had been attained (99.5% step completion).
Upon reaching equilibration, the % RH within the apparatus was ramped to the next step and the equilibration procedure repeated. After completion of the sorption cycle, the sample was then dried using the same procedure. The weight change during the sorption/desorption cycles was then monitored, allowing for the hygroscopic nature of the sample to be determined.

[8] = Thermogravimetric analysis (TGA); format: physicochemical; conditions: heated at 10° C./min
Procedure: Approximately 5 mg of sample (accurately weighed) was placed into a platinum TGA pan and loaded into a TGA 7 gravimetric analyser. The sample under study was then heated at a rate of 10° C./min (from ambient to 300° C.) and the resulting change in weight monitored. A dry nitrogen purge gas at a flow rate of 20 ml/min was used to produce an inert atmosphere and prevent oxidation of the sample during heating. Prior to analysis the instrument was weight calibrated using a 100 mg reference standard and temperature calibrated using an Alumel reference standard (using the Curie point transition temperature).

[9] = system: OVCAR-3 tumour cells; conditions: concentrations of 50 and 100 microM; cited from earlier work
[10] = biological target: T1, PKG (Homo sapiens, UniProt Q13976); conditions: cited from earlier work
T1 sequence (Q13976 1-671): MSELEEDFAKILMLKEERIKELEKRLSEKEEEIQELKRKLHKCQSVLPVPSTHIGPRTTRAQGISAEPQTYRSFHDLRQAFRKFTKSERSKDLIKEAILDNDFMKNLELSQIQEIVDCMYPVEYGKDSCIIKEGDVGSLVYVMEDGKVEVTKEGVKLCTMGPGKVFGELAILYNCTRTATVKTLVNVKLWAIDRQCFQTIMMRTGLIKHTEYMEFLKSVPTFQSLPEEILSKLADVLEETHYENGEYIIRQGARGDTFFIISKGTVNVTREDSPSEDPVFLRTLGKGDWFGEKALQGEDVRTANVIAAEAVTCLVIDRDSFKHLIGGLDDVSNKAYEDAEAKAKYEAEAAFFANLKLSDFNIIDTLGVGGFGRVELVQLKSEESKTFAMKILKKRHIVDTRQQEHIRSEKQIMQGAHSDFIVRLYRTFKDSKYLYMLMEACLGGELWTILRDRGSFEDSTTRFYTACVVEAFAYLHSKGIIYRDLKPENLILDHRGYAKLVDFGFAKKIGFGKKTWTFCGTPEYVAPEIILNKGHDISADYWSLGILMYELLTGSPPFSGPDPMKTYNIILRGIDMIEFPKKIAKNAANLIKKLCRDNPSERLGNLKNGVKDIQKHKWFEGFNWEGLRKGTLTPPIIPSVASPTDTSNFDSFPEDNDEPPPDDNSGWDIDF

[11] = system: PKC; conditions: cited from earlier work
[12] = system: P-glycoprotein-overexpressing subline of CCRF-CEM; conditions: cited from earlier work
[13] = Gravimetric vapour sorption (GVS); format: physicochemical; conditions: forms of 1-cyclopropyl-3-[3-(5-morpholin-4-ylmethyl-1H-benzoimidazol-2-yl)-1H-pyrazol-4-yl]-urea; 25° C., 0-95% RH
Procedure: E. Gravimetric Vapour Sorption (GVS):
The sample size was ca. 10-25 mg. […] The sample was loaded and unloaded at room humidity and temperature (ca. 40% RH, 25° C.) and analysed afterwards by XRPD (using a Bruker AXS C2 GADDS system).

[14] = antitumour agent; cited from earlier work

Compound: Cc1ccc(NC(=O)c2ccc(CN3CCN(C)CC3)cc2)cc1Nc1nccc(-c2cccnc2)n1 [imatinib, 4-[(4-methyl-1-piperazinyl)methyl]-N-[4-methyl-3-[[4-(3-pyridinyl)-2-ylpyridinyl]amino]-phenyl]benzamide methanesulfonate]
duration of remissions [1]: 2-6 months

Compound: O=C(NC1CCNCC1)c1n[nH]cc1NC(=O)c1c(Cl)cccc1Cl [Example 1]
IC50 [2]: < 20 µM

Compound: 1-(2,6-difluorophenyl)-N-[3-(5-morpholin-4-ylmethyl-1H-benzimidazol-2-yl)-1H-pyrazol-4-yl]-urea [D-glucuronate]
solubility ([3]; acid addition salts of 1-(2,6-difluorophenyl)-N-[3-(5-morpholin-4-ylmethyl-1H-benzimidazol-2-yl)-1H-pyrazol-4-yl]-urea, liquid carrier (e.g. water)): greater than 25 mg/ml

Compound: CCCCCCCCCCCCCCCCCCOP(=O)([O-])OC1CC[N+](C)(C)CC1 [KRX-0401]
half-life [4]: ~100 h

Compound: CC1=C(/C=C/C(C)=C/C=C/C(C)=C/C(=O)O)C(C)(C)CCC1 [Tretinoin, all-trans retinoic acid]
remissions induced [5]: 64-100%

Compound: Nc1nc(F)nc2c1ncn2[C@@H]1O[C@H](CO)[C@@H](O)[C@@H]1O [fludarabine]
duration of progression-free survival [6]: 33 months
rate of complete responses [6]: 27%

weight loss during initial drying ([7]; 0% RH, 25° C.): approximately 0.01%
total weight increase upon equilibration ([7]; stepwise 0-90% RH, equilibration at 90% RH, 25° C.): 0.24%
TGA significant event (thermally induced partial degradation prior to melt) ([8]; ambient to 300° C.): about 288 °C
TGA mass loss ([8]; up to 150° C., crystals from Example 5 Step 8): approximately 0.2%
Compound: CS(=O)(=O)N1CCC(NC(=O)c2n[nH]cc2NC(=O)c2c(Cl)cccc2Cl)CC1
hygroscopicity / hydrate formation ([7]; storage in elevated humidity conditions): physically stable with regard to hygroscopicity

Compound: O=S(=O)(NCCNCC=C(c1ccccc1)c1ccccc1)c1cccc2cnccc12 [NL-71-101]
apoptosis [9]: induced apoptosis
IC50 [10]: 36 µM
IC50 [11]: 104 µM

solubility [3]: > 100 mg/mL
Compound: O=C(Nc1c[nH]nc1-c1nc2cc(CN3CCOCC3)ccc2[nH]1)Nc1c(F)cccc1F [esylate, 1-(2,6-difluorophenyl)-N-[3-(5-morpholin-4-ylmethyl-1H-benzimidazol-2-yl)-1H-pyrazol-4-yl]-urea]

Compound: C/C1=C/C[C@@H](/C(C)=C/c2csc(C)n2)OC(=O)C[C@H](O)C(C)(C)C(=O)[C@H](C)[C@@H](O)[C@@H](C)CCC1 [desoxyepothilone B]
IC50 [12]: 17 nM

Compound: C[C@H](O)C(=O)O.O=C(Nc1c[nH]nc1-c1nc2cc(CN3CCOCC3)ccc2[nH]1)NC1CC1 [L-lactate salt, 1-cyclopropyl-3-[3-(5-morpholin-4-ylmethyl-1H-benzoimidazol-2-yl)-1H-pyrazol-4-yl]-urea]
GVS isotherm behaviour [13]: does not display hygroscopic behaviour and does not form a hydrate

Compound: CCN[C@H]1CO[C@@H](O[C@H]2[C@H](O[C@H]3C#C/C=C\C#C[C@]4(O)CC(=O)C(NC(=O)OC)=C3/C4=C\CSSSC)O[C@H](C)[C@@H](NO[C@H]3C[C@H](O)[C@H](SC(=O)c4c(C)c(I)c(O[C@@H]5O[C@@H](C)[C@H](O)[C@@H](OC)[C@H]5O)c(OC)c4OC)[C@@H](C)O3)[C@@H]2O)C[C@@H]1OC [Calicheamicin]
potency relative to adriamycin [14]: over 1,000 times
